Laboratory results: patent US20140249135A1, “PIM KINASE INHIBITORS AND METHODS OF THEIR USE” (NOVARTIS AG, priority 2007, published 2014)

Columns and labels:
Type in all cases: biochemical
Pim1 kinase = Pim1 kinase (Homo sapiens, UniProt P11309); assay: Pim1 ATP depletion assay; details: Pim1 ATP depletion assay; read-out: PIM1 IC50;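 note: Luciferase-luciferin luminescence readout of residual ATP after PIM1 transfers phosphate to a peptide substrate, 40 µM ATP added, reaction run to roughly half ATP consumption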
Pim2 kinase = Pim2 kinase (Homo sapiens, UniProt Q9P1W9); assay: Pim2 ATP depletion assay; details: read-out: PIM2 IC50;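 note: Luciferase-based luminescent readout of ATP remaining after PIM2 phosphorylates a BAD peptide, final 5 nM enzyme, 4 µM ATP, 10 µM peptide, 2.5% DMSO, run to roughly half ATP consumption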
Pim3 kinase = Pim3 kinase (Homo sapiens, UniProt Q86V86); assay: Pim3 ATP depletion assay; details: read-out: PIM3 IC50

Measured: IC50

Pim2 kinase, sequence (Q9P1W9 whole entry): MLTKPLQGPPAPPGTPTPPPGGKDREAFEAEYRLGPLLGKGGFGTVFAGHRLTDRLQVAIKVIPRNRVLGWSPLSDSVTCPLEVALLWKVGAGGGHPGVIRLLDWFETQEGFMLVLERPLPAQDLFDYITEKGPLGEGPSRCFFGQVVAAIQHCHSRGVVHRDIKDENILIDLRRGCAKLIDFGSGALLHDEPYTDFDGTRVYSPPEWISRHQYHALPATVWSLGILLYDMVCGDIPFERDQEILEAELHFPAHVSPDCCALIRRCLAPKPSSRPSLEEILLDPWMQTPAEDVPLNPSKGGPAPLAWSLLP
Pim1 kinase, sequence (P11309 whole entry): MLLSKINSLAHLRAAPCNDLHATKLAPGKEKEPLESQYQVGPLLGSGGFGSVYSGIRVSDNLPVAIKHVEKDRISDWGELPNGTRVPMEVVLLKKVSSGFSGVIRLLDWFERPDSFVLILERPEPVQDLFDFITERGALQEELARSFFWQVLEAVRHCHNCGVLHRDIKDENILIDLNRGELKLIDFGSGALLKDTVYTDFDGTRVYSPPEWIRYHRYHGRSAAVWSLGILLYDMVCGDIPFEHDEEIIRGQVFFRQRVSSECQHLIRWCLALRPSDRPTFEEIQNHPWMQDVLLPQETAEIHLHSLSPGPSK

N[C@H]1C[C@@H](O)CN(c2ccncc2NC(=O)c2ccc(F)c(-c3ccccc3F)n2)C1 [Example 684, 5-Fluoro-6-(2-fluoro-phenyl)-pyridine-2-carboxylic acid (5-amino-3-hydroxy-3,4,5,6-tetra-hydro-2H-[1,4′]bipyridinyl-3′-yl)-amide]
< 1000 nM: all assays above

N#Cc1ccc(-c2ccc(N)c(C(=O)Nc3cnccc3N3CCC[C@H](N)C3)n2)c(F)c1 [Example 686, 3-Amino-6-(4-cyano-2-fluoro-phenyl)-pyridine-2-carboxylic acid (3-amino-3,4,5,6-tetra-hydro-2H-[1,4′]bipyridinyl-3′-yl)-amide]
< 1000 nM: all assays above

CC(C)/C=C\c1ccc(F)c(-c2ccc(N)c(C(=O)Nc3cnccc3N3CCC[C@H](N)C3)n2)c1 [Example 687, 3-Amino-6-[2-fluoro-5-(3-methyl-but-1-enyl)-phenyl]-pyridine-2-carboxylic acid (3-amino-3,4,5,6-tetrahydro-2H-[1,4′]bipyridinyl-3′-yl)-amide]
< 1000 nM: all assays above

Nc1ccc(-c2cncs2)nc1C(=O)Nc1cnccc1N1CCC[C@H](N)C1 [Example 688, 3-Amino-6-thiazol-5-yl-pyridine-2-carboxylic acid (3-amino-3,4,5,6-tetrahydro-2H-[1,4′]bipyridinyl-3′-yl)-amide]
< 1000 nM: all assays above

CC(C)N(C)C(=O)c1ccc(F)c(-c2ccc(N)c(C(=O)Nc3cnccc3N3CCC[C@H](N)C3)n2)c1F [Example 689, 3-Amino-6-[2,6-difluoro-3-(isopropyl-methyl-carbamoyl)-phenyl]-pyridine-2-carboxylic acid (3-amino-3,4,5,6-tetra-hydro-2H-[1,4′]bipyridinyl-3′-yl)-amide]
< 1000 nM: all assays above

Nc1ccc(-c2ncccc2F)nc1C(=O)Nc1cnccc1N1CCC[C@H](O)C1 [Example 690, 5-Amino-3′-fluoro-[2,2′]bi-pyridinyl-6-carboxylic acid (3-hydroxy-3,4,5,6-tetrahydro-2H-[1,4′]bipyridinyl-3′-yl)-amide]
< 1000 nM: all assays above

NC(=O)c1ccc(-c2ccc(N)c(C(=O)Nc3cnccc3N3CCC[C@H](N)C3)n2)nc1 [Example 691, 5′-Amino[2,2′]bipyridinyl-5,6′-dicarboxylic acid 5-amide 6′-[(3-amino-3,4,5,6-tetrahydro-2H-[1,4′]bipyridinyl-3′-yl)-amide]]
< 1000 nM: all assays above

Nc1ccc(-c2cncc3ccccc23)nc1C(=O)Nc1cnccc1N1CCC[C@H](N)C1 [Example 692, 3-Amino-6-isoquinolin-4-yl-pyridine-2-carboxylic acid (3-amino-3,4,5,6-tetrahydro-2H-[1,4′]bipyridinyl-3′-yl)-amide]
< 1000 nM: all assays above

Nc1ccc(-c2cccc[n+]2[O-])nc1C(=O)Nc1cnccc1N1CCC[C@H](N)C1 [Example 693, 5-Amino-1′-oxy-[2,2′]bi-pyridinyl-6-carboxylic acid (3-amino-3,4,5,6-tetrahydro-2H-[1,4′]bipyridinyl-3′-yl)-amide]
< 1000 nM: all assays above

COc1nccnc1-c1ccc(N)c(C(=O)Nc2cnccc2N2CCC[C@H](N)C2)n1 [Example 694, 3-Amino-6-(3-methoxy-pyrazin-2-yl)-pyridine-2-carboxylic acid (3-amino-3,4,5,6-tetrahydro-2H-[1,4′]bipyridinyl-3′-yl)-amide]
< 1000 nM: all assays above

Nc1ccc(-c2cccc(OCc3ccccc3)n2)nc1C(=O)Nc1cnccc1N1CCC[C@H](N)C1 [Example 695, 5-Amino-6′-benzyloxy-[2,2′]bi-pyridinyl-6-carboxylic acid (3-amino-3,4,5,6-tetrahydro-2H-[1,4′]bipyridinyl-3′-yl)-amide]
< 1000 nM: all assays above
